Counter-ions that a name gives are not always drawn.
What follows are molecules tested against T1, Serotonin 1A (5-HT1A) receptor (Rattus norvegicus, UniProt P19327) (assay: Serotonin 1A (5-HT1A) receptor inhibition assay, [3H]8-OH-DPAT binding to rat cortex membranes). Conditions: 10 nM test compound; 0.92 nM [3H]8-OH-DPAT; rat cortex homogenate; 60 min at 25° C.
T1 construct: The cortex tissue were homogenized in 30 volumes of ice-cold 50 mM Tris-HCl buffer; from tissue; host or cells: Sprague-Dawley rat brain cortex membranes
T1 sequence (P19327 1-422): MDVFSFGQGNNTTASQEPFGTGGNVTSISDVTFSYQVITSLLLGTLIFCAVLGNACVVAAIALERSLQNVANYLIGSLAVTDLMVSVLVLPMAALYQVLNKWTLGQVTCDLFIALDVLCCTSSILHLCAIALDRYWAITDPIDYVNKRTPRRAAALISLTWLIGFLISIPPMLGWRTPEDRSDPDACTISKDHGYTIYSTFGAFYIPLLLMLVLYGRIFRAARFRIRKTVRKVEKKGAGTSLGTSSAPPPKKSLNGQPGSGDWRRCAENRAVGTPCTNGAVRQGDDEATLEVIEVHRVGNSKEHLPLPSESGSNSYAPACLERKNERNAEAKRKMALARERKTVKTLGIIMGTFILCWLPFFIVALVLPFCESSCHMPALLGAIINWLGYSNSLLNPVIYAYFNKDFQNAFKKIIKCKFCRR
Set-up: species or system Sprague-Dawley (SD) rats
Procedure: The method to test the ability of compounds to inhibit serotonin 1A(5-HT1A) receptors was using Hall. et al., J Neuro Chem., 1985, 44, p 1685-1696 with modification.
The Sprague-Dawley (SD) rats were killed by decapitation and their brains rapidly removed at 4° C. The cortex tissue were homogenized in 30 volumes of ice-cold 50 mM Tris-HCl buffer (pH7.4) using an ultra-turrax T8 and centrifuged at 48,000 g for 20 min. The supernatant was discarded and the pellet washed twice by resuspension in 20 volumes Tris-HCl and centrifugation, homogenized in 20 volumes Tris-HCl, and incubated at 37° C. for 10 min. Membranes were than collected by centrifugation and washed twice before final resuspension in 10 volumes of 50 mM Tris-HCl, pH7.4.
For binding assays, the incubation medium consisted of 162.5 ug of tissue homogenate, 0.92 nM of [3H]8-OH-DPAT and vehicle or 10 uM of 5-HT or 10 nM of test compounds per well. 5-HT and test compounds were dissolved in distilled water and incubation medium was 50 mM Tris(pH7.4 at room temperature). The assay plates (96 well) were incubated for 60 min at 25° C. The reaction was terminated by rapid filtration using a Tomtec harvester, through GF/C glassfibre filter with 5 times washes of Tris buffer. The radioactivity retained on the filters was counted by scintillation spectroscopy (MicroBeta TriLux, Wallac). The tests were triplicates. Percent inhibition was calculated as below equation.
Total binding is the value of vehicle treated group and specific binding is the values that deduct non-specific binding (i.e. the value of non-specific ligand, 5-HT).

Row | Compound | inhibition at 0.01 µM [%]
1 | COc1ccccc1N1CCN(CCCCOc2ccc(Cn3cnnn3)cc2)CC1 [Example 3, 1-(2-methoxy-phenyl)-4-[4-(4-tetrazol-1-ylmethyl-phenoxy)-butyl]-piperazine] | 77.8
2 | COc1ccccc1N1CCN(CCCCOc2ccc(Cn3ncnn3)cc2)CC1 [Example 4, 1-(2-methoxy-phenyl)-4-[4-(4-tetrazol-2-ylmethyl-phenoxy)-butyl]-piperazine] | 75.9
3 | COc1ccccc1N1CCN(CCCCOc2cccc(Cn3cncn3)c2)CC1 [Example 6, 1-(2-methoxy-phenyl)-4-[4-(3-[1,2,4]triazol-1-ylmethyl-phenoxy)-butyl]-piperazine hydrochloride] | 50.1
4 | COc1ccccc1N1CCN(CCCCOc2ccc(Cn3cnc4ccccc43)cc2)CC1 [Example 9, 1-(4-{4-[4-(2-methoxy-phenyl)-piperazin-1-yl]-butoxy}-benzyl)-1H-benzoimidazole] | 52.2
5 | COc1ccccc1N1CCN(CCCCOc2ccc(Cn3ccnc3C)cc2)CC1 [Example 10, 1-(2-Methoxy-phenyl)-4-{4-[4-(2-methyl-imidazol-1-ylmethyl)-phenoxy]-butyl}-piperazine] | 71.8
6 | COc1ccccc1N1CCN(CCCCOc2ccc(Cn3ncc4ccccc43)cc2)CC1 [Example 13, 1-(4-{4-[4-(2-Methoxy-phenyl)-piperazin-1-yl]-butoxy}-benzyl)-1H-indazole] | 50.4
7 | COc1ccccc1N1CCN(CCCCOc2ccc(Cn3nnc4ccccc43)cc2)CC1 [Example 14, 1-(4-{4-[4-(2-Methoxy-phenyl)-piperazin-1-yl]-butoxy}-benzyl)-1H-benzotriazole] | 51.1
8 | COc1ccccc1N1CCN(CCCCOc2ccc(Cn3nnc(-c4ccccc4)n3)cc2)CC1 [Example 15, 1-(2-methoxy-phenyl)-4-{4-[4-(5-phenyl-tetrazol-2-ylmethyl)-phenoxy]-butyl}-piperazine] | 23.5
9 | COc1ccccc1N1CCN(CCCCOc2ccc(Cn3nnnc3-c3ccccc3)cc2)CC1 [Example 16, 1-(2-methoxy-phenyl)-4-{4-[4-(5-phenyl-tetrazol-1-ylmethyl)-phenoxy]-butyl}-piperazine] | 62.5
10 | COc1ccccc1N1CCN(CCCCOc2ccc(Cn3nnc(C)n3)cc2)CC1 [Example 17, 1-(2-methoxy-phenyl)-4-{4-[4-(5-methyl-tetrazol-2-ylmethyl)-phenoxy]-butyl}-piperazine] | 56.4
11 | COc1ccccc1N1CCN(CCCCOc2ccc(CNc3nccs3)cc2)CC1 [Example 22, (4-{4-[4-(2-methoxy-phenyl)-piperazin-1-yl]-butoxy}-benzyl)-thiazol-2-yl-amine] | 53.4
12 | Clc1ccccc1N1CCN(CCCCOc2ccc(Cn3cncn3)cc2)CC1 [Example 23, 1-(2-chloro-phenyl)-4-[4-(4-[1,2,4]triazol-1-ylmethyl-phenoxy)-butyl]-piperazine] | 17.2
13 | COc1ccccc1N1CCN(CCCCOc2cccc(Cn3ccnn3)c2)CC1 [Example 25, 1-(2-Methoxy-phenyl)-4-[4-(3-[1,2,3]triazol-1-ylmethyl-phenoxy)-butyl]-piperazine] | 45.2
14 | COc1ccccc1N1CCN(CCCCOc2cccc(CN3CCOCC3)c2)CC1 [Example 29, 4-(3-{4-[4-(2-methoxy-phenyl)-piperazin-1-yl]-butoxy}-benzyl)-morpholine] | 45.8
15 | COc1ccccc1N1CCN(CCCCOc2ccc(CNc3nncs3)cc2)CC1 [Example 43, (4-{4-[4-(2-Methoxy-phenyl)-piperazin-1-yl]-butoxy}-benzyl)-[1,3,4]thiadiazol-2-yl-amine] | 95.6
16 | COc1ccccc1N1CCN(CCCCOc2ccc(CNc3cc(C)on3)cc2)CC1 [Example 45, (4-{4-[4-(2-Methoxy-phenyl)-piperazin-1-yl]-butoxy}-benzyl)-(5-methyl-isoxazol-3-yl)-amine] | 73.8
17 | COc1ccccc1N1CCN(CCCCOc2ccc(CNc3cc(C)no3)cc2)CC1 [Example 46, (4-{4-[4-(2-methoxy-phenyl)-piperazin-1-yl]-butoxy}-benzyl)-(3-methyl-isoxazol-5-yl)-amine] | 64.6

The remaining lines, values ahead:

Row | inhibition at 0.01 µM [%] | Compound
18 | 47 | COc1ccccc1N1CCN(CCCCOc2cccc(Cn3nnc(C)n3)c2)CC1 [Example 26, 1-(2-Methoxy-phenyl)-4-{4-[3-(5-methyl-tetrazol-2-ylmethyl)-phenoxy]-butyl}-piperazine]
19 | 40.9 | COc1ccccc1N1CCN(CCCCOc2cccc(Cn3nnnc3C)c2)CC1 [Example 27, 1-(2-methoxy-phenyl)-4-{4-[3-(5-methyl-tetrazol-1-ylmethyl)-phenoxy]-butyl}-piperazine]
20 | 38.3 | COc1ccccc1N1CCN(CCCCOc2ccc(Cn3cnc(Cl)c3Cl)cc2)CC1 [Example 30, 1-{4-[4-(4,5-dichloro-imidazol-1-ylmethyl)-phenoxy]-butyl}-4-(2-methoxy-phenyl)-piperazine]
21 | 30.3 | Clc1ccccc1N1CCN(CCCCOc2ccc(Cn3ncnn3)cc2)CC1 [Example 31, 1-(2-chloro-phenyl)-4-[4-(4-tetrazol-2-ylmethyl-phenoxy)-butyl]-piperazine]
22 | 73.3 | CN1CCN(Cc2ccc(OCCCCN3CCN(c4ccccc4Cl)CC3)cc2)CC1 [Example 35]
23 | 24.8 | Cc1nnnn1Cc1ccc(OCCCCN2CCN(c3cccc(Cl)c3Cl)CC2)cc1 [Example 37, 1-(2,3-Dichloro-phenyl)-4-{4-[4-(5-methyl-tetrazol-1-ylmethyl)-phenoxy]-butyl}-piperazine]
24 | 29.4 | Cc1nnn(Cc2ccc(OCCCCN3CCN(c4cccc(Cl)c4Cl)CC3)cc2)n1 [Example 38, 1-(2,3-Dichloro-phenyl)-4-{4-[4-(5-methyl-tetrazol-2-ylmethyl)-phenoxy]-butyl}-piperazine]
25 | 36.2 | Clc1ccccc1N1CCN(CCCCOc2ccc(Cn3ccnn3)cc2)CC1 [Example 42, 1-(2-chloro-phenyl)-4-[4-(4-[1,2,3]triazol-1-ylmethyl-phenoxy)-butyl]-piperazine]
26 | 17.4 | Clc1cccc(N2CCN(CCCCOc3ccc(Cn4ccnn4)cc3)CC2)c1Cl [Example 44, 1-(2,3-dichloro-phenyl)-4-[4-(4-[1,2,3]triazol-1-ylmethyl-phenoxy)-butyl]-piperazine]
27 | 46 | COc1ccccc1N1CCN(CCCCOc2ccc(CCn3nnnc3C)cc2)CC1 [Example 53, 1-(2-Methoxy-phenyl)-4-(4-{4-[2-(5-methyl-tetrazol-1-yl)-ethyl]-phenoxy}-butyl)-piperazine]
28 | 24.3 | Clc1ccccc1N1CCN(CCCCOc2ccc(Cn3nccn3)cc2)CC1 [Example 56, 1-(2-chloro-phenyl)-4-[4-(4-[1,2,3]triazol-2-ylmethyl-phenoxy)-butyl]-piperazine]

Source: patent US8772299B2, “Phenyl piperazine compounds, pharmaceutical composition including the same and use thereof” (SK Biopharmaceuticals Co., Ltd., priority 2008, dated 2014)
